Test results from patent US20190070170A1, “METHOD OF S[…]-1” (Macau University of Science and Technology, priority 2017, published 2019).

Key:
[1] = system: COX-2; assay: COX-2 protein expression in IL-1β-stimulated A549 cells (western blotting); format: cell-based; settings: IL-1β with SIN or DEX for 48 h
Experimental: (§1) RAW264.7 and A549 cell lines were obtained from American Type Culture Collection (ATCC, Manassas, Va., USA) and maintained in DMEM (RAW264.7) or 1640 (A549) medium containing 10% FBS (Gibco-BRL, Grand Island, N.Y., USA) and antibiotics at 37° C. in a humidified atmosphere containing 5% CO2. RAW264.7 cells were plated in 6-well plates at a density of 4×10^5 cells and incubated for 24 h, then the cells were pretreated with different concentrations of SIN for 1 h before stimulating with LPS (100 ng/ml). A549 cells were seeded in 6-well plates at a density of 1×10^5 cells and incubated for 24 h, followed by pretreatment with SIN. A549 cells were then stimulated by IL-1β (1 ng/ml).
Whole-cell and nuclear proteins were obtained using RIPA lysis buffer (CST, Boston, Mass., USA) and Nuclear and Cytoplasmic Extraction Reagents kit from Thermo Scientific (Asheville, N.C., USA), respectively. For immunoblotting, proteins from whole-cell, cytoplasm, nuclear, and microsomal fractions were separated on SDS-PAGE, then transferred onto a nitrocellulose membrane from GE Healthcare Life Sciences (Buckinghamshire, UK), and incubated with 5% skimmed milk at room temperature for 1 h. […] The levels of protein expression were measured using Odyssey v3.0 software from Li-COR (Lincoln, Nebr., USA).

[2] = system: TNF-α; assay: TNF-α level in LPS-stimulated RAW264.7 cells (ELISA); format: cell-based, mouse; settings: pretreatment 1 h, LPS 100 ng/ml 18 h
Experimental: as §1
RAW264.7 cells and rat peritoneal macrophages were seeded in a 96-well plate at density of 1.4×10^4 and 1.5×10^5 cells, respectively. Various concentration of SIN was added to the cells for 1 hour before LPS stimulation. After stimulation with LPS for 18 h (RAW264.7 cells) or 24 h (rat peritoneal macrophages), MTT solution was added to each well and incubated for another 4 hours. 100 μl 10% SDS-HCl solution was added to each well for overnight to dissolve the formazan dye. The optical density was measured at 570 nm against a reference wavelength of 650 nm using a microplate UV/VIS spectrophotometer (Tecan, Mannedorf, Switzerland). […]

[3] = system: COX-2; assay: COX-2 protein in microsomes of inflamed paw of carrageenan-induced rats (western blotting); format: in vivo, SD rats; settings: SIN or DEX pretreatment i.p.
Experimental: The model of carrageenan-induced paw edema was performed with SD rats (150-200 g). The carrageenan-induced paw edema was performed in SD rats (150-200 g) by subcutaneously injection λ-carrageenan as described in Liu J. et al., Pharmacological research 2016, 111 and Luo P. et al., J. Pharmacol. Exp. Ther. 2010. Briefly, rats were fasted for 12 h before experiment and intraperitoneal injection was performed with three different doses (25, 50 and 100 mg/kg) of SIN, or DEX (reference drug, 2 mg/kg) or 0.9% saline (Vehicle and Normal group rats), at 2 h prior to the induction of paw edema. […] Paw volumes (ml) of right hind foot of each rat were measured using a plethysmometer (type 7150; UGO Basile, Comerio, Italy) at 0 h (before carrageenan injection) and then again at 1, 2, 3 and 4 h after the injection of carrageenan or saline. The percentage of paw edema of the right hind paws of all groups were calculated at different time points by the following equation: […]
Whole-cell and nuclear proteins were obtained using RIPA lysis buffer (CST, Boston, Mass., USA) and Nuclear and Cytoplasmic Extraction Reagents kit from Thermo Scientific (Asheville, N.C., USA), respectively. […] The levels of protein expression were measured using Odyssey v3.0 software from Li-COR (Lincoln, Nebr., USA).

COC1=C[C@@H]2[C@@H]3Cc4ccc(OC)c(O)c4[C@]2(CCN3C)CC1=O [SIN, sinomenine]
COX-2 protein expression [1]: did not suppress
TNF-α production [2]: significantly inhibited
COX-2 level in inflamed paw [3]: did not produce observable effects
